Reference: patent US20160120894A1, “USE OF ADENOSINE ASPARTATE IN THE DI[…] M[…] INFLAMMATORY-[…] AND ITS REVERSAL” (UNIVERSIDAD NACIONAL AUTÓNOMA DE MÉXICO, priority 2013, published 2016)
Entries after “also recorded” stand apart in the source; their conditions may differ.

What was measured:
[1] = system: serum cytokine; experiment: Prevention of CCl4-induced cirrhosis: serum cytokines by Luminex; assay type: in vivo, rats
Text: FIGS. 1A to 1C refer to the obtained results for serum cytokine evaluated by Luminex® at 4, 6 and 8 weeks of administration of CCl4 and CCl4+IFC. Concentration (pg/mL)±standard deviation is shown.
(§1) Cirrhosis is a disease chronic degenerative characterized by diffuse fibrosis and regenerative nodules distorting tissue architecture. The diffuse fibrosis is supported by a chronic inflammatory process. During this process, chemokines and cytokines that favor this process are generated. In a model of prevention of cirrhosis by treatment with adenosine aspartate, knowing having an antifibrogenic effect, would allow knowing the effect of this drug during the establishment of cirrhosis for 4, 6 and 8 weeks and its effect on response activation immune and inflammation.
(§2) In this study, four groups of six male rats of 100 g to 110 g were formed; the rats were treated simultaneously under the same doses with CCl4 (25 μl of carbon tetrachloride in vegetable oil) and IFC-305 (50 mg/Kg). All treatments were given three times a week for 4, 6 and 8 weeks; at the moment of sacrifice, of serum and liver were taken.

[2] = system: cytokines in liver homogenate; experiment: Prevention of CCl4-induced cirrhosis: cytokines in liver homogenate by Luminex; assay type: in vivo, rats; settings: CCl4+IFC-305 50 mg/Kg, 8 weeks
Text: FIGS. 2A and 2B refer to the results obtained for cytokines in liver homogenate evaluated by Luminex® at 8 weeks of administration of CCl4 and CCl4+IFC-305. Concentration (pg/mL)±standard deviation is shown.
as §1, §2

[3] = system: Kupffer cells (CD163+/CD11b+); experiment: Prevention of CCl4-induced cirrhosis: kinetic of Kupffer cells in the liver by flow cytometry; assay type: in vivo, rats; settings: CCl4+IFC-305 vs CCl4; 4, 6, 8 and 10 weeks
Procedure: FIG. 5 refers to the kinetic of Kupffer cells (CD163+/CD11b+) in the liver, assessed by flow cytometry at 4, 6, 8 and 10 weeks, administration with CCl4, IFC-305 and CCl4+IFC-305 to same time. % Kupffer cells±standard error.
as §2
FIG. 5 refers to a graphic showing the total number of Kupffer cells quantified with CD163+/CD11b/c+ for 4, 6, 8 and 10 weeks of treatment with CCl4, with an increase during the development of cirrhosis that decreases with the treatment of the compound IFC-305.

[4] = system: serum cytokines; experiment: Reversal of established CCl4 cirrhosis: serum cytokines by Luminex; assay type: in vivo, Wistar rats; settings: cirrhotic rats, IFC-305 50 mg/kg i.p. three times a week vs saline
Procedure: (§3) FIGS. 3A to 3C refer to the obtained results for serum cytokines evaluated by Luminex® in the different experimental groups of cirrhotic animals (Ci) treated with IFC-305 and saline for five and ten weeks (Ci SS 5s, Ci IFC 5s, Ci SS 10s and Ci IFC 10s post-treatment with CCl4). Concentration (pg/mL)±standard deviation is shown.
(§4) 100 g male Wistar rats were used, with free access to food and water. Cirrhosis was induced with 25 μl of CCl4 in vegetable oil three times a week for ten weeks. Once cirrhosis is established, the animals were divided into five groups: group I, treatment with CCl4 is suspended, control animals of cirrhosis are sacrificed, groups II and III is allowed to proceed cirrhosis and received three intraperitoneal injections of saline per week for 5 to 10 weeks, groups IV and V received three intraperitoneal injections of the compound at a dose of 50 mg/kg for 5 to 10 weeks; at the moment of sacrifice, serum and liver samples taken.

[5] = system: cytokines in liver homogenate; experiment: Reversal of established CCl4 cirrhosis: cytokines in liver homogenate by Luminex; assay type: in vivo, Wistar rats; settings: cirrhotic rats, IFC-305 50 mg/kg i.p.
Procedure: as §3, with “4A” for “3A”, “4D” for “3C”, “for” for “for serum”, “cytokines in liver homogenate” for “cytokines”, “10s,” for “10s”, “10s).” for “10s post-treatment with CCl4).”
as §4

[6] = system: total macrophages (HIS36+/CD11b+) and inflammatory phenotype Kupffer cells (CD163+/CD11b/c+ (M1)); experiment: Reversal of established CCl4 cirrhosis: distribution of liver macrophages by flow cytometry; assay type: in vivo, Wistar rats; settings: cirrhotic rats, IFC-305 50 mg/kg i.p., five and ten weeks
Procedure: FIGS. 6A and 6B relate to the obtained results regarding the distribution of macrophages. […] Percentage (%) of Kupffer cells with respect to control±standard error.
as §4

[7] = system: Arginase I; experiment: Reversal of established CCl4 cirrhosis: Western blot of Arginase I in liver homogenate; assay type: in vivo, Wistar rats; settings: cirrhotic rats, IFC-305 50 mg/kg i.p., five and ten weeks
Procedure: FIG. 7 refers to Western blot Arginase I. Expression of total protein in liver homogenate in the different experimental groups treated with IFC-305 and saline for five and ten weeks.
as §4

[8] = CCl4+IFC-305 50 mg/Kg three times a week vs CCl4, 4, 6 and 8 weeks

adenosine aspartate [IFC-305]
serum IL-1β [1, 8]: decreasing
serum IL-4 [1, 8]: decreasing; also recorded: decreased
serum IL-6 ([1]; CCl4+IFC-305 50 mg/Kg vs CCl4, 4 and 6 weeks): decreasing; also recorded: decrease
serum IL-6 ([1]; CCl4+IFC-305 50 mg/Kg, 8 weeks): increase
liver homogenate IL-1β [2]: decreases
liver homogenate IL-4 [2]: decreases
liver homogenate IL-6 [2]: increase relative to the control
liver homogenate IL-10 [2]: decreases
liver homogenate IL-12 [2]: increase relative to the control
liver homogenate INF-γ [2]: increase relative to the control
liver homogenate MCP-1 [2]: increase relative to the control
liver homogenate IL-6 ([2]; listed as adenosine aspartate): increase
total number of Kupffer cells (CD163+/CD11b/c+) in the liver [3]: decreases
serum IL-4 ([4]; 5 weeks): kept in similar values to controls or less; also recorded: maintained in an equal range to the control or lower
serum IL-6 ([4]; 5 weeks): kept in similar values to controls or less; also recorded: maintained in an equal range to the control or lower
serum IL-1β ([4]; 10 weeks): kept in similar values to controls or less; also recorded: maintained in an equal range to the control or lower
inflammatory cytokines in liver homogenate (cirrhosis high values) ([5]; 5 to 10 weeks): reduced
liver homogenate IL-1β ([5]; five and ten weeks): decreased compared to cirrhotic control
liver homogenate IL-4 ([5]; five and ten weeks): decreased compared to cirrhotic control
liver homogenate IL-6 ([5]; five and ten weeks): regulated
IL-10 (anti-inflammatory cytokine), liver homogenate ([5]; five and ten weeks, 50 mg/kg): increased
Kupffer cells with inflammatory phenotype (M1) CD163+/CD11b/c+ [6]: decrease; also recorded: decreasing during the progression of cirrhosis and markedly with the treatment
total macrophages (HIS36+/CD11b+) in the liver [6]: increases
arginase (Arginase I) protein in liver homogenate, Western blot [7]: more amount of enzyme
arginase (Arginase I) protein in liver homogenate, Western blot ([7]; 50 mg/kg): increased
